Assay results as given in PubChem BioAssay AID2060907 (Molecular Pharmacology Branch, DTP, NCI, 2025).

Test system: 388556-164-R-J1-PDC complex spheroid viability
Assay: Anticancer human tumor 388556-164-R-J1-PDC patient-derived colon adenocarcinoma cell line growth inhibition [RAS]
Settings: for IC50: curve of first compound; for viability, T/C: stronger effect = lower value
Procedure, shortened: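 Tumour cells grown as complex spheroids with HUVEC endothelial cells and mesenchymal stem cells, treated with RAS pathway inhibitor combinations. Each agent spans half-log steps from near clinical Cmax, or 10 microM where Cmax is unknown.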

[1] = second compound 0.000949 µM, first compound 0.0316 µM
[2] = second compound 0.000949 µM, first compound 0.1 µM
[3] = second compound 0.003 µM, first compound 0.0316 µM
[4] = second compound 0.003 µM, first compound 0.1 µM
[5] = second compound 0.00949 µM, first compound 0.0316 µM
[6] = second compound 0.00949 µM, first compound 0.1 µM
[7] = second compound 0.03 µM, first compound 0.0316 µM
[8] = second compound 0.03 µM, first compound 0.1 µM
[9] = second compound 0.0949 µM, first compound 0.0316 µM
[10] = second compound 0.0949 µM, first compound 0.1 µM
[11] = second compound 0.3 µM, first compound 0.0316 µM
[12] = second compound 0.3 µM, first compound 0.1 µM
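Note: spheroids exposed to compound for 7 days before readout.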
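Throughout, for viability, T/C: 100% = DMSO vehicle control luminescence.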

With CC(C)NCC(C(=O)N1CCN(c2ncnc3c2C(C)CC3O)CC1)c1ccc(Cl)cc1 (centres undefined) + CCn1c(-c2cc(N3CCN(C)CC3)cnc2C(C)OC)c2c3cc(ccc31)-c1csc(n1)CC(NC(=O)C1CC1C)C(=O)N1CCCC(N1)C(=O)OCC(C)(C)C2 the IC50 (second compound 0.000949 µM) was greater than 10000 nM, the IC50 (second compound 0.003 µM) was greater than 10000 nM and the IC50 (second compound 0.00949 µM) was greater than 10000 nM. For the same compound, the IC50 (second compound 0.03 µM) was 5630 nM, the IC50 (second compound 0.0949 µM) was less than 31.6 nM and the IC50 (second compound 0.3 µM) was less than 31.6 nM. The viability, T/C [1] was 105%, the viability, T/C [2] was 107% and the viability, T/C (second compound 0.000949 µM, first compound 0.316 µM) was 96.4%. It also gave a viability, T/C (second compound 0.000949 µM, first compound 1 µM) of 91.2%, a viability, T/C (second compound 0.000949 µM, first compound 3.16 µM) of 95% and a viability, T/C (second compound 0.000949 µM, first compound 10 µM) of 103%. It also gave a viability, T/C [3] of 102%, a viability, T/C [4] of 96.5% and a viability, T/C (second compound 0.003 µM, first compound 0.316 µM) of 95.4%. For the same compound, the viability, T/C (second compound 0.003 µM, first compound 1 µM) was 82%, the viability, T/C (second compound 0.003 µM, first compound 3.16 µM) was 84.9% and the viability, T/C (second compound 0.003 µM, first compound 10 µM) was 88%. It also gave a viability, T/C [5] of 86%, a viability, T/C [6] of 80% and a viability, T/C (second compound 0.00949 µM, first compound 0.316 µM) of 69.4%. It also gave a viability, T/C (second compound 0.00949 µM, first compound 1 µM) of 73.9%, a viability, T/C (second compound 0.00949 µM, first compound 3.16 µM) of 84.8% and a viability, T/C (second compound 0.00949 µM, first compound 10 µM) of 58.8%. For the same compound, the viability, T/C [7] was 58.2%, the viability, T/C [8] was 65.7% and the viability, T/C (second compound 0.03 µM, first compound 0.316 µM) was 57.1%. The viability, T/C (second compound 0.03 µM, first compound 1 µM) was 56%, the viability, T/C (second compound 0.03 µM, first compound 3.16 µM) was 51.9% and the viability, T/C (second compound 0.03 µM, first compound 10 µM) was 47.8%. For the same compound, the viability, T/C [9] was 45.7%, the viability, T/C [10] was 46.5% and the viability, T/C (second compound 0.0949 µM, first compound 0.316 µM) was 38.9%. For the same compound, the viability, T/C (second compound 0.0949 µM, first compound 1 µM) was 36.3%, the viability, T/C (second compound 0.0949 µM, first compound 3.16 µM) was 40.9% and the viability, T/C (second compound 0.0949 µM, first compound 10 µM) was 33%. The viability, T/C [11] was 31.9%, the viability, T/C [12] was 31.5% and the viability, T/C (second compound 0.3 µM, first compound 0.316 µM) was 30.5%. For the same compound, the viability, T/C (second compound 0.3 µM, first compound 1 µM) was 28.1%, the viability, T/C (second compound 0.3 µM, first compound 3.16 µM) was 24.4% and the viability, T/C (second compound 0.3 µM, first compound 10 µM) was 22.8%.
Work on CC(C)n1nc(-c2ccc3oc(N)nc3c2)c2c(N)ncnc21 + CCn1c(-c2cc(N3CCN(C)CC3)cnc2C(C)OC)c2c3cc(ccc31)-c1csc(n1)CC(NC(=O)C1CC1C)C(=O)N1CCCC(N1)C(=O)OCC(C)(C)C2 yielded an IC50 (second compound 0.000949 µM) of 43.9 nM, an IC50 (second compound 0.003 µM) of 35.5 nM and an IC50 (second compound 0.00949 µM) of 16.2 nM. The IC50 (second compound 0.03 µM) was 5.2 nM, the IC50 (second compound 0.0949 µM) was less than 0.316 nM and the IC50 (second compound 0.3 µM) was less than 0.316 nM. It also gave a viability, T/C (second compound 0.000949 µM, first compound 0.000316 µM) of 107%, a viability, T/C (second compound 0.000949 µM, first compound 0.001 µM) of 94.8% and a viability, T/C (second compound 0.000949 µM, first compound 0.00316 µM) of 73.7%. The viability, T/C (second compound 0.000949 µM, first compound 0.01 µM) was 71.5%, the viability, T/C [1] was 56.4% and the viability, T/C [2] was 38%. It also gave a viability, T/C (second compound 0.003 µM, first compound 0.000316 µM) of 88.3%, a viability, T/C (second compound 0.003 µM, first compound 0.001 µM) of 80.4% and a viability, T/C (second compound 0.003 µM, first compound 0.00316 µM) of 72.2%. It also gave a viability, T/C (second compound 0.003 µM, first compound 0.01 µM) of 68.1%, a viability, T/C [3] of 50.8% and a viability, T/C [4] of 34.9%. The viability, T/C (second compound 0.00949 µM, first compound 0.000316 µM) was 82.4%, the viability, T/C (second compound 0.00949 µM, first compound 0.001 µM) was 78.9% and the viability, T/C (second compound 0.00949 µM, first compound 0.00316 µM) was 59.4%. It also gave a viability, T/C (second compound 0.00949 µM, first compound 0.01 µM) of 56.5%, a viability, T/C [5] of 47.1% and a viability, T/C [6] of 27.2%. For the same compound, the viability, T/C (second compound 0.03 µM, first compound 0.000316 µM) was 60.6%, the viability, T/C (second compound 0.03 µM, first compound 0.001 µM) was 55.1% and the viability, T/C (second compound 0.03 µM, first compound 0.00316 µM) was 62.5%. The viability, T/C (second compound 0.03 µM, first compound 0.01 µM) was 37.6%, the viability, T/C [7] was 34.4% and the viability, T/C [8] was 21.5%. For the same compound, the viability, T/C (second compound 0.0949 µM, first compound 0.000316 µM) was 46.3%, the viability, T/C (second compound 0.0949 µM, first compound 0.001 µM) was 42.1% and the viability, T/C (second compound 0.0949 µM, first compound 0.00316 µM) was 39.1%. It also gave a viability, T/C (second compound 0.0949 µM, first compound 0.01 µM) of 34.4%, a viability, T/C [9] of 27.9% and a viability, T/C [10] of 18.2%. The viability, T/C (second compound 0.3 µM, first compound 0.000316 µM) was 30.6%, the viability, T/C (second compound 0.3 µM, first compound 0.001 µM) was 32.6% and the viability, T/C (second compound 0.3 µM, first compound 0.00316 µM) was 27.9%. The viability, T/C (second compound 0.3 µM, first compound 0.01 µM) was 23.5%, the viability, T/C [11] was 20.9% and the viability, T/C [12] was 17.1%.
